Data on one compound can be found in patent publication US7521461B2, “Benzoic acid derivatives as modulators of PPAR alpha and gamma” (AstraZeneca AB, priority 2002, dated 2009).

As usually defined, the EC50 is the concentration needed to bring the measured effect to its halfway point.

One experiment deals with T1, human PPAR alpha (Homo sapiens, UniProt Q07869).
T1 construct: expressed in transfected cells; host or cells: U2-OS (human osteogenic sarcoma), transient transfection by electroporation with a pSG5-based expression vector
T1 sequence (Q07869 239-466 limits assumed): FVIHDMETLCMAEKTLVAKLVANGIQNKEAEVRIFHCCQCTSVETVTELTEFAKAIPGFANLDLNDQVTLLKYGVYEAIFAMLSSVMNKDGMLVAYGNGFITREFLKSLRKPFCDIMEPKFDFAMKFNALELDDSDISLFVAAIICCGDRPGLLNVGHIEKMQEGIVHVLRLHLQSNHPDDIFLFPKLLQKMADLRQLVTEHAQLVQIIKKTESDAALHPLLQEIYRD
Nature of the experiment: GAL4-PPAR ligand binding domain luciferase reporter transactivation assay in transiently transfected U2-OS cells. It is filed as cell-based. Conditions: concentration giving 50% of the maximal activation obtained by the reference compound (ETYA), about 24 hours exposure. As to the method:
(§1) Compounds were dissolved in DMSO to obtain 16 mM stock solutions. Before assays, stock solutions were further diluted in DMSO and culture media
(§2) U2-OS, (Osteogenic sarcoma, Human) was purchased from ATCC, USA. Cells were expanded and refrozen in batches from passage number six. Cells were cultured in Dulbecco's modified Eagle medium (DMEM) with 25 mM glucose, 2 mM glutamine or 4 mM L-alanyl-L-glutamine, 10% fetal calf serum, at 5% CO2. Phosphate buffered saline (PBS) without addition of calcium or magnesium was used. All cell culture reagents were from Gibco (USA) and 96-well cell culture plates were purchased from Wallach.
(§3) Standard recombinant DNA techniques were carried out as described by Ausubel (7). The Luciferase reporter vector, pGL5UAS (clone consists of five copies of the GAL4 DNA binding sequence, 5′-[…]-3′, cloned into the SacI/XhoI sites of pGL3-Promoter (Promega). The SacI/XhoI fragment carrying the UAS sites was constructed using annealed overlapping oligonucleotides.
(§4) Expression vectors used are based upon pSG5 (Stratagene). All vectors contain an EcoRI/NheI fragment encoding the DNA binding domain of GALA (encoding amino acid positions 1-145 of database accession number P04386) followed by an in-frame fusion to a fragment encoding the nuclear localisation sequence from T antigen of Polyoma Virus. […]
Background: A reporter such as luciferase makes a cellular process visible.

A further experiment deals with T2, mouse PPAR gamma (Mus musculus, UniProt P37238).
T2 construct: expressed in transfected cells; host or cells: U2-OS (human osteogenic sarcoma), transient transfection by electroporation with a pSG5-based expression vector
T2 sequence (P37238 238-503 limits assumed): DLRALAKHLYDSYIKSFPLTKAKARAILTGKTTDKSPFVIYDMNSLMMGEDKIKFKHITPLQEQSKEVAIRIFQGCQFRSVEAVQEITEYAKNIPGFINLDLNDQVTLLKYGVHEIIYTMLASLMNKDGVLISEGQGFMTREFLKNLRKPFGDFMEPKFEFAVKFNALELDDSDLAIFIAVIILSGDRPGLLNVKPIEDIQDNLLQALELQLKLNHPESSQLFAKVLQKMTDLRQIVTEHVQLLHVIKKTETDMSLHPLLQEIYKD
Described as above. Type of experiment: cell-based. Conditions: concentration giving 50% of the maximal activation obtained by the reference compound (pioglitazone), about 24 hours exposure. As to the method:
as §1, §2, §3, §4

In the case of `O=C(Cc1ccc(OCc2ccccc2C(=O)O)cc1)NCc1ccc(C(F)(F)F)cc1` [Example 2, 2-{[4-(2-Oxo-2-{[4-(trifluoromethyl)benzyl]amino}ethyl)phenoxy]methyl}benzoic acid], the EC50 was found to be 2960 nM at human PPAR alpha and 3.05 µM at mouse PPAR gamma.
